target: human Gal-3 (hGal-3) (Homo sapiens (Human), UniProt P17931); test: competitive binding assay: biotinylated hGal-3 binding to microplate-adsorbed asialofetuin (ASF); conditions: Gal-3 inhibition; binding of biotinylated hGal-3 to ASF; mean values; read-out: IC50
Experimental: If not explicitly mentioned otherwise, the inhibition data refer to the binding of biotinylated human Gal-3 (hGal-3).
Evaluation of Compound Inhibitory Activity (IC50)
The inhibitory activity of compounds is determined in competitive binding assays.
Briefly, compounds are serially diluted in DMSO (working dilutions).
Plates are incubated for 3 hours at 4° C., then washed with cold assay buffer (3×50 uL), incubated for 1 hour with 25 μL/well of a streptavidin-peroxidase solution (diluted in assay buffer to 80 ng/mL) at 4° C., followed by further washing steps with assay buffer (3×50 uL). Finally, 25 μL/well of ABTS substrate is added.
The calculated IC50 values may fluctuate depending on the daily assay performance. Fluctuations of this kind are known to those skilled in the art. IC50 values from several measurements are given as mean values.

human Gal-3 (hGal-3), sequence (P17931 whole entry): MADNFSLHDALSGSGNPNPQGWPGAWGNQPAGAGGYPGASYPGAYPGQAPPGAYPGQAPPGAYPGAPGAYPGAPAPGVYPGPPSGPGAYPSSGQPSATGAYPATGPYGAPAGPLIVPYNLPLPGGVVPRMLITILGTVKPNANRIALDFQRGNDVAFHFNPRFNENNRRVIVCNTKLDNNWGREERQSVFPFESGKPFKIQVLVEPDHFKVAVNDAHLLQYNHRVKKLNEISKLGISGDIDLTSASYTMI

CC(C)Cc1c([C@@H](S[C@@H]2O[C@H](CO)[C@H](O)[C@H](n3cc(-c4cc(F)c(F)c(F)c4)nn3)[C@H]2O)C2(O)CCC(F)(F)CC2)noc1C1CC1 [2.44.131 R., (2S,3R,4S,5R,6R)-2-(((R)-(5-Cyclopropyl-4-isobutylisoxazol-3-yl)(4,4-difluoro-1-hydroxycyclohexyl)methyl)thio)-6-(hydroxymethyl)-4-(4-(3,4,5-trifluorophenyl)-1H-1,2,3-triazol-1-yl)tetrahydro-2H-pyran-3,5-diol] and CS(=O)(=O)N1CCC(O)(C(S[C@@H]2O[C@H](CO)[C@H](O)[C@H](n3cc(-c4cc(F)c(F)c(F)c4)nn3)[C@H]2O)c2ccccc2C(F)(F)F)CC1 (stereo partly drawn) [Example 2.47.112., (2S,3R,4S,5R,6R)-2-(((4-Hydroxy-1-(methylsulfonyl)piperidin-4-yl)(2-(trifluoromethyl)phenyl)methyl)thio)-6-(hydroxymethyl)-4-(4-(3,4,5-trifluorophenyl)-1H-1,2,3-triazol-1-yl)tetrahydro-2H-pyran-3,5-diol] are within 1.5-fold of each other in IC50: 0.05 µM for the first, 0.07 µM for the second.

Compared with OC[C@H](S[C@@H]1O[C@H](CO)[C@H](O)[C@H](n2cc(-c3cc(F)c(F)c(F)c3)nn2)[C@H]1O)c1ccccc1 [Example 2.30.100R., (2S,3R,4S,5R,6R)-2-(((R)-2-Hydroxy-1-phenylethyl)thio)-6-(hydroxymethyl)-4-(4-(3,4,5-trifluorophenyl)-1H-1,2,3-triazol-1-yl)tetrahydro-2H-pyran-3,5-diol], CC(C)(O)C(S[C@@H]1O[C@H](CO)[C@H](O)[C@H](n2cc(-c3cc(F)c(F)c(F)c3)nn2)[C@H]1O)c1ccccc1Cl (stereo partly drawn) [Example 2.31.111., (2S,3R,4S,5R,6R)-2-((1-(2-Chlorophenyl)-2-hydroxy-2-methylpropyl)thio)-6-(hydroxymethyl)-4-(4-(3,4,5-trifluorophenyl)-1H-1,2,3-triazol-1-yl)tetrahydro-2H-pyran-3,5-diol] is 2-fold lower in IC50: 0.8 µM for the first, 0.41 µM for the second.

CS(=O)(=O)N1CC(O)(C(S[C@@H]2O[C@H](CO)[C@H](O)[C@H](n3cc(-c4cc(F)c(F)c(F)c4)nn3)[C@H]2O)c2ccccc2C(F)(F)F)C1 (stereo partly drawn) [Example 2..57.112., (2S,3R,4S,5R,6R)-2-(((3-Hydroxy-1-(methylsulfonyl)azetidin-3-yl)(2-(trifluoromethyl)phenyl)methyl)thio)-6-(Hydroxymethyl)-4-(4-(3,4,5-trifluorophenyl)-1H-1,2,3-triazol-1-yl)tetrahydro-2H-pyran-3,5-diol] and CS(=O)(=O)N1CC(O)([C@H](S[C@@H]2O[C@H](CO)[C@H](O)[C@H](n3cc(-c4cc(F)c(F)c(F)c4)nn3)[C@H]2O)c2ccccc2C(F)(F)F)C1 [Example 2..57.112R., (2S,3R,4S,5R,6R)-2-(((R)-(3-Hydroxy-1-(methylsulfonyl)azetidin-3-yl)(2-(trifluoromethyl)phenyl)methyl)thio)-6-(hydroxymethyl)-4-(4-(3,4,5-trifluorophenyl)-1H-1,2,3-triazol-1-yl)tetrahydro-2H-pyran-3,5-diol] are within 1.5-fold of each other in IC50: 0.22 µM for the first, 0.17 µM for the second.

First: CS(=O)(=O)N1CC(O)([C@@H](S[C@@H]2O[C@H](CO)[C@H](O)[C@H](n3cc(-c4cc(F)c(F)c(F)c4)nn3)[C@H]2O)c2ccccc2C(F)(F)F)C1 [Example 2..57.112S., (2S,3R,4S,5R,6R)-2-(((S)-(3-Hydroxy-1-(methylsulfonyl)azetidin-3-yl)(2-(trifluoromethyl)phenyl)methyl)thio)-6-(hydroxymethyl)-4-(4-(3,4,5-trifluorophenyl)-1H-1,2,3-triazol-1-yl)tetrahydro-2H-pyran-3,5-diol]
Second: COC(=O)N1CC(O)(C(S[C@@H]2O[C@H](CO)[C@H](O)[C@H](n3cc(-c4cc(F)c(F)c(F)c4)nn3)[C@H]2O)c2ccccc2C(F)(F)F)C1 (stereo partly drawn) [Example 2..58.112., Methyl 3-((((2S,3R,4S,5R,6R)-3,5-dihydroxy-6-(hydroxymethyl)-4-(4-(3,4,5-trifluorophenyl)-1H-1,2,3-triazol-1-yl)tetrahydro-2H-pyran-2-yl)thio)(2-(trifluoromethyl)phenyl)methyl)-3-hydroxyazetidine-1-carboxylate]
The IC50 of the first is 14-fold higher: 5.8 µM for the first, 0.4 µM for the second.

With O=C(NC1CC1)N1CC(O)(C(S[C@@H]2O[C@H](CO)[C@H](O)[C@H](n3cc(-c4cc(F)c(F)c(F)c4)nn3)[C@H]2O)c2ccccc2C(F)(F)F)C1 (stereo partly drawn) [Example 2..59.11.2, N-Cyclopropyl-3-((((2S,3R,4S,5R,6R)-3,5-dihydroxy-6-(hydroxymethyl)-4-(4-(3,4,5-trifluorophenyl)-1H-1,2,3-triazol-1-yl)tetrahydro-2H-pyran-2-yl)thio)(2-(trifluoromethyl)phenyl)methyl)-3-hydroxyazetidine-1-carboxamide] the IC50 was 0.29 µM.

same assay, conditions: Table 5; read-out: IC50 (Gal-3 inhibition)

Compared with OC[C@H]1O[C@@H](S[C@H](c2ccccc2Cl)C2(O)CCC(F)(F)CC2)[C@H](O)[C@@H](n2cc(-c3cc(F)c(F)c(F)c3)nn2)[C@H]1O [Example 2.44.111R, (2S,3R,4S,5R,6R)-2-(((R)-(2-Chlorophenyl)(4,4-difluoro-1-hydroxycyclohexyl)methyl)thio)-6-(hydroxymethyl)-4-(4-(3,4,5-trifluorophenyl)-1H-1,2,3-triazol-1-yl)tetrahydro-2H-pyran-3,5-diol], OC[C@H]1O[C@@H](S[C@@H](c2ccccc2Cl)C2(O)CCC(F)(F)CC2)[C@H](O)[C@@H](n2cc(-c3cc(F)c(F)c(F)c3)nn2)[C@H]1O [Example 2.44.111S, (2S,3R,4S,5R,6R)-2-(((S)-(2-Chlorophenyl)(4,4-difluoro-1-hydroxycyclohexyl)methyl)thio)-6-(hydroxymethyl)-4-(4-(3,4,5-trifluorophenyl)-1H-1,2,3-triazol-1-yl)tetrahydro-2H-pyran-3,5-diol] is 200-fold higher in IC50: 0.09 µM for the first, 18.4 µM for the second. The first is the more potent here.

same assay, conditions: Table 9; 2-OMe-Gal inhibitors; read-out: IC50 (Gal-3 inhibition)

With CO[C@@H]1[C@@H](n2cc(-c3cc(F)c(F)c(F)c3)nn2)[C@@H](O)[C@@H](CO)O[C@H]1S[C@H](c1ccccc1C(F)(F)F)[C@]1(O)CCOC(C)(C)C1 [Example 2.43.112RS.I, (2R,3R,4S,5R,6S)-6-(((R)-((S)-4-Hydroxy-2,2-dimethyltetrahydro-2H-pyran-4-yl)(2-(trifluoromethyl)phenyl)methyl)thio)-2-(hydroxymethyl)-5-methoxy-4-(4-(3,4,5-trifluorophenyl)-1H-1,2,3-triazol-1-yl)tetrahydro-2H-pyran-3-ol] the IC50 was 0.14 µM.

same assay, conditions: Table 11; read-out: IC50 (Gal-3 inhibition)

First: CO[C@@H]1[C@@H](n2cc(-c3cc(F)c(F)c(F)c3)nn2)[C@@H](O)[C@@H](CO)O[C@H]1S[C@H](c1ncccc1C)[C@@]1(O)CCOC(C)(C)C1 [Example 2.43.126RR.I., (2R,3R,4S,5R,6S)-6-(((R)-((R)-4-Hydroxy-2,2-dimethyltetrahydro-2H-pyran-4-yl)(3-methylpyridin-2-yl)methyl)thio)-2-(hydroxymethyl)-5-methoxy-4-(4-(3,4,5-trifluorophenyl)-1H-1,2,3-triazol-1-yl)tetrahydro-2H-pyran-3-ol]
Second: CO[C@@H]1[C@@H](n2cc(-c3cc(F)c(F)c(F)c3)nn2)[C@@H](O)[C@@H](CO)O[C@H]1S[C@@H](c1ncccc1C)[C@@]1(O)CCOC(C)(C)C1 [Example 2.43.126SR.I., (2R,3R,4S,5R,6S)-6-(((S)-((R)-4-Hydroxy-2,2-dimethyltetrahydro-2H-pyran-4-yl)(3-methylpyridin-2-yl)methyl)thio)-2-(hydroxymethyl)-5-methoxy-4-(4-(3,4,5-trifluorophenyl)-1H-1,2,3-triazol-1-yl)tetrahydro-2H-pyran-3-ol]
The IC50 of the first is 4.8-fold lower: 0.73 µM for the first, 3.5 µM for the second. The first is the more potent here.

Compared with CO[C@@H]1[C@@H](n2cc(-c3cc(F)c(F)c(F)c3)nn2)[C@@H](O)[C@@H](CO)O[C@H]1S[C@@H](c1ncccc1C)[C@]1(O)CCOC(C)(C)C1 [Example 2.43.126SS.I., (2R,3R,4S,5R,6S)-6-(((S)-((S)-4-Hydroxy-2,2-dimethyltetrahydro-2H-pyran-4-yl)(3-methylpyridin-2-yl)methyl)thio)-2-(hydroxymethyl)-5-methoxy-4-(4-(3,4,5-trifluorophenyl)-1H-1,2,3-triazol-1-yl)tetrahydro-2H-pyran-3-ol], CO[C@@H]1[C@@H](n2cc(-c3cc(F)c(F)c(F)c3)nn2)[C@@H](O)[C@@H](CO)O[C@H]1SC(c1ncccc1C)C1(O)CCC2(CCOCC2)CC1 (stereo partly drawn) [Example 2.72.126.I, 9-((((2S,3R,4S,5R,6R)-5-Hydroxy-6-(hydroxymethyl)-3-methoxy-4-(4-(3,4,5-trifluorophenyl)-1H-1,2,3-triazol-1-yl)tetrahydro-2H-pyran-2-yl)thio)(3-methylpyridin-2-yl)methyl)-3-oxaspiro[5.5]undecan-9-ol] is 15-fold lower in IC50: 1.9 µM for the first, 0.13 µM for the second.

same assay, conditions: Table 14; read-out: IC50 (Gal-3 inhibition)

Compared with CO[C@@H]1[C@@H](n2cc(-c3ccc(F)c(F)c3F)nn2)[C@@H](O)[C@@H](CO)O[C@H]1SC(c1ncccc1C)C1(O)CCC(F)(F)CC1 (stereo partly drawn) [Example 21.44.126.I., (2R,3R,4S,5R,6S)-6-(((4,4-Difluoro-1-hydroxycyclohexyl)(3-methylpyridin-2-yl)methyl)thio)-2-(hydroxymethyl)-5-methoxy-4-(4-(2,3,4-trifluorophenyl)-1H-1,2,3-triazol-1-yl)tetrahydro-2H-pyran-3-ol], CO[C@@H]1[C@@H](n2cc(-c3cnc(F)c(C)c3)nn2)[C@@H](O)[C@@H](CO)O[C@H]1SC(c1ncccc1C)C1(O)CCC(F)(F)CC1 (stereo partly drawn) [Example 24.44.126.I., (2R,3R,4S,5R,6S)-6-(((4,4-Difluoro-1-hydroxycyclohexyl)(3-methylpyridin-2-yl)methyl)thio)-4-(4-(6-fluoro-5-methylpyridin-3-yl)-1H-1,2,3-triazol-1-yl)-2-(hydroxymethyl)-5-methoxytetrahydro-2H-pyran-3-ol] is 5.5-fold higher in IC50: 0.06 µM for the first, 0.33 µM for the second. The first is the more potent here.
